From PubChem BioAssay (NCI)
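Dose response: 5 concentrations. Exposure: 48 h. Format: 96-well plates. Endpoint: linear interpolation; highest concentration if not reached. TGI is the concentration that stops growth completely.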

Assays:
Assay in all cases: DTP human tumour cell line panel, 48 h
ACHN renal = test system: ACHN renal
CAKI-1 renal = test system: CAKI-1 renal
CCRF-CEM leukemia = test system: CCRF-CEM leukemia
COLO 205 colon = test system: COLO 205 colon
DLD-1 colon = test system: DLD-1 colon
DMS 114 small cell lung = test system: DMS 114 small cell lung
DMS 273 small cell lung = test system: DMS 273 small cell lung
EKVX NSCLC = test system: EKVX NSCLC
HCC-2998 colon = test system: HCC-2998 colon
HCT-116 colon = test system: HCT-116 colon
HCT-15 colon = test system: HCT-15 colon
HOP-18 NSCLC = test system: HOP-18 NSCLC
HOP-62 NSCLC = test system: HOP-62 NSCLC
HOP-92 NSCLC = test system: HOP-92 NSCLC
HT29 colon = test system: HT29 colon
K-562 leukemia = test system: K-562 leukemia
KM12 colon = test system: KM12 colon
KM20L2 colon = test system: KM20L2 colon
LOX IMVI melanoma = test system: LOX IMVI melanoma
LXFL 529 NSCLC = test system: LXFL 529 NSCLC
M14 melanoma = test system: M14 melanoma
M19-MEL melanoma = test system: M19-MEL melanoma
MALME-3M melanoma = test system: MALME-3M melanoma
MOLT-4 leukemia = test system: MOLT-4 leukemia
NCI-H226 lung = test system: NCI-H226 lung
NCI-H23 lung = test system: NCI-H23 lung
NCI-H460 lung = test system: NCI-H460 lung
NCI-H522 lung = test system: NCI-H522 lung
OVCAR-3 ovarian = test system: OVCAR-3 ovarian
OVCAR-4 ovarian = test system: OVCAR-4 ovarian
OVCAR-5 ovarian = test system: OVCAR-5 ovarian
OVCAR-8 ovarian = test system: OVCAR-8 ovarian
RPMI-8226 leukemia = test system: RPMI-8226 leukemia
RXF 393 renal = test system: RXF 393 renal
SF-268 CNS = test system: SF-268 CNS
SF-295 CNS = test system: SF-295 CNS
SK-MEL-2 melanoma = test system: SK-MEL-2 melanoma
SK-MEL-28 melanoma = test system: SK-MEL-28 melanoma
SK-MEL-5 melanoma = test system: SK-MEL-5 melanoma
SN12C renal = test system: SN12C renal
SNB-75 CNS = test system: SNB-75 CNS
SR leukemia = test system: SR leukemia
SW-620 colon = test system: SW-620 colon
TK-10 renal = test system: TK-10 renal
U251 CNS = test system: U251 CNS
UACC-257 melanoma = test system: UACC-257 melanoma
UO-31 renal = test system: UO-31 renal

O=C1CN2C(Cl)(Cl)C2(c2ccccc2)c2cc(Cl)ccc2N1CC1CC1 (configuration not stated)
TGI (ACHN renal): 65.8 µM | TGI (CAKI-1 renal): > 100 µM | TGI (CCRF-CEM leukemia): 61.4 µM | TGI (COLO 205 colon): 38.8 µM | TGI (DLD-1 colon): 44.2 µM | TGI (DMS 114 small cell lung): 85.8 µM | TGI (DMS 273 small cell lung): 63.2 µM | TGI (EKVX NSCLC): 89.1 µM | TGI (HCC-2998 colon): 33.4 µM | TGI (HCT-116 colon): 35.8 µM | TGI (HCT-15 colon): 48.9 µM | TGI (HOP-18 NSCLC): 81.2 µM | TGI (HOP-62 NSCLC): 50.3 µM | TGI (HOP-92 NSCLC): 26.2 µM | TGI (HT29 colon): 44.9 µM | TGI (K-562 leukemia): 65.8 µM | TGI (KM12 colon): 30.2 µM | TGI (KM20L2 colon): 88.5 µM | TGI (LOX IMVI melanoma): 31.6 µM | TGI (LXFL 529 NSCLC): > 100 µM | TGI (M14 melanoma): 36.6 µM | TGI (M19-MEL melanoma): 93.8 µM | TGI (MALME-3M melanoma): 32 µM | TGI (MOLT-4 leukemia): 54.8 µM | TGI (NCI-H226 lung): 41.6 µM | TGI (NCI-H23 lung): 51.7 µM | TGI (NCI-H460 lung): 32 µM | TGI (NCI-H522 lung): 38.2 µM | TGI (OVCAR-3 ovarian): 33.8 µM | TGI (OVCAR-4 ovarian): > 100 µM | TGI (OVCAR-5 ovarian): > 100 µM | TGI (OVCAR-8 ovarian): 29.8 µM | TGI (RPMI-8226 leukemia): 81.8 µM | TGI (RXF 393 renal): 35.9 µM | TGI (SF-268 CNS): 86.1 µM | TGI (SF-295 CNS): 47.1 µM | TGI (SK-MEL-2 melanoma): 33.4 µM | TGI (SK-MEL-28 melanoma): 32.9 µM | TGI (SK-MEL-5 melanoma): 35.7 µM | TGI (SN12C renal): 35.5 µM | TGI (SNB-75 CNS): 94.8 µM | TGI (SR leukemia): 68.6 µM | TGI (SW-620 colon): > 100 µM | TGI (TK-10 renal): > 100 µM | TGI (U251 CNS): 34.7 µM | TGI (UACC-257 melanoma): 40.9 µM | TGI (UO-31 renal): 66.6 µM
